Reference: ChEMBL document CHEMBL1201862, “PubChem BioAssay data set” (2004)
Calls of active or inactive are those of the source. Cut-off read from the data, not from the text of the source, for most assays here: actives have a measured EC50 and inactives only a lower limit.

Legend:
INS1 = assay: beta cell apoptosis inhibitors, cytokine rescue, dose response, luminescence, retest (AID 449756); format: functional, cell-based; conditions: Rattus norvegicus;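 note: cell death triggered by IL-1 beta plus TNF-alpha plus IFN-gamma mixture; protective hits raise ATP signal compared with cytokine alone wells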
[1] = cytotoxicity toward NIH3T3 fibroblasts, dose response, counter-screen, cell-based, ATP luminescence, mouse fibroblasts (AID 2010); format: functional;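 note: cells exposed to compound for about 90 hours before reading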
[2] = inhibitors of intracellular T. cruzi replication, confirmation, NIH3T3 host cells, beta-gal luminescence (AID 2044); format: functional, cell-based;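 note: intracellular parasites grown in NIH/3T3 mouse fibroblasts as host cells; luminescent beta-galactosidase reporter signal from transgenic T. cruzi replicating inside host cells; inhibitors lower the luminescence signal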
Cytochrome P450 2C9 = Cytochrome P450 2C9 (Homo sapiens, UniProt P11712)
[3] = target: T1, Heat shock factor protein 1 (Mus musculus, UniProt P38532); assay: inhibition of MG132-induced HSE-luciferase signal, confirmation, cell-based, NIH3T3, luminescence, dose retest (AID 2382); format: functional;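 note: NIH3T3 fibroblasts with HSF1-driven luciferase reporter stressed by proteasome inhibitor MG132; luminescence from HSF1-driven luciferase expression after 8 hours of MG132 stress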
T1 sequence (P38532 whole entry): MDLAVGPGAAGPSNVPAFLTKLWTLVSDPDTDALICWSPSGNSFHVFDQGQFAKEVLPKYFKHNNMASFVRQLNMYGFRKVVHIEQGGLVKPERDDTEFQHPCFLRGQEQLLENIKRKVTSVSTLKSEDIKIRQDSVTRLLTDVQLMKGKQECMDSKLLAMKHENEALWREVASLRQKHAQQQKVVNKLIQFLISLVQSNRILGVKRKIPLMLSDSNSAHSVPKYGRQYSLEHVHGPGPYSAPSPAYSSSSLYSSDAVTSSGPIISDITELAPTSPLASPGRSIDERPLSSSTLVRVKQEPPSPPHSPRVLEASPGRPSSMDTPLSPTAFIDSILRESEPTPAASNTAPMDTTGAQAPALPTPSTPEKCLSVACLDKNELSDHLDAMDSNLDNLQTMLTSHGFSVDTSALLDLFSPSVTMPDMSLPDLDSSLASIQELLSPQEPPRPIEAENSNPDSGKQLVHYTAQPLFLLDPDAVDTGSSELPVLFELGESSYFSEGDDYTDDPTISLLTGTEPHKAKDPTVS

[4] = target: T2, Rac GTPase-activating protein 1 (Homo sapiens, UniProt Q9H0H5); assay: MgcRacGAP GTPase-activating activity inhibitors, confirmation, biochemical, ADP Hunter fluorescence, primary and confirmatory (AID 624330); format: functional
T2 sequence (Q9H0H5 whole entry): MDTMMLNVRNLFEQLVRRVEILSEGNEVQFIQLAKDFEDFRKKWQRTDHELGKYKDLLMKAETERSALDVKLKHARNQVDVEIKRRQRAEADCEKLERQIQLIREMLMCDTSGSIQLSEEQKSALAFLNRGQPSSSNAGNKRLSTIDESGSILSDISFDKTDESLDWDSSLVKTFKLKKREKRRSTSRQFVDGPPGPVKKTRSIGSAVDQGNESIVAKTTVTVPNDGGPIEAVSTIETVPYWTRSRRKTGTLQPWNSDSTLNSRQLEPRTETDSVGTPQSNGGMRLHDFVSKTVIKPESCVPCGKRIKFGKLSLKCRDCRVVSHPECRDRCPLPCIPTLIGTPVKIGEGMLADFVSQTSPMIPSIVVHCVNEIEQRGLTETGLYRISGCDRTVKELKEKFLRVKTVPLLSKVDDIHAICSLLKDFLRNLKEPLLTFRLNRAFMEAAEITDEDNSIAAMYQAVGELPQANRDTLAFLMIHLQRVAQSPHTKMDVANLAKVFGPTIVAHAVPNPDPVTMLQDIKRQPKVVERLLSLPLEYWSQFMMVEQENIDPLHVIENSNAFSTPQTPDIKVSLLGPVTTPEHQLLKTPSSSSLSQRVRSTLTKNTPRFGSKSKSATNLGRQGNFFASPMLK

[5] = HEp-2 cell cytotoxicity, dose response, cytotoxicity control for RSV inhibitor project, HTS (AID 2410); format: functional; conditions: human respiratory syncytial virus
Streptococcus = assay: Group A Streptococcus viability loss, dose response, counter-screen for streptokinase expression inhibitor project, luminescence, BacTiterGlo (AID 1915); format: functional, organism-based;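 note: potency for reduction of bacterial viability or growth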
[6] = test system: Streptococcus sp. 'group A'; assay: growth inhibition of control SK(-) GAS strain, dose response, counter-screen for streptokinase expression inhibitor project, luminescence, kanamycin, BacTiterGlo, confirmation (AID 1900); format: functional, organism-based

Chain of Cytochrome P450 2C9 (P11712 whole entry): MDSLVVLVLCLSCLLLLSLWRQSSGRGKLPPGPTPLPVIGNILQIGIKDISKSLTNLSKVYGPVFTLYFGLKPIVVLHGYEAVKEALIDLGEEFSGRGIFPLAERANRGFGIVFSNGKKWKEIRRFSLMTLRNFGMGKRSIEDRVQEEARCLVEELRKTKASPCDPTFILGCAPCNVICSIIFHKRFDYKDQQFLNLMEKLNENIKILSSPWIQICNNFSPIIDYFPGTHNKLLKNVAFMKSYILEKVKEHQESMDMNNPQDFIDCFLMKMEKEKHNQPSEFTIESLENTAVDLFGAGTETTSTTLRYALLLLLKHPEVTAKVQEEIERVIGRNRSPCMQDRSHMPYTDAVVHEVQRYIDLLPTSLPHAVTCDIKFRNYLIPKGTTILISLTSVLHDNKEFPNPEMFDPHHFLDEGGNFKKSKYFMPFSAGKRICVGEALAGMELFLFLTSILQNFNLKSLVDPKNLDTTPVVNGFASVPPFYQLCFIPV

O=C(NCC#CCSc1nnc(-c2cccc3ccccc23)o1)c1cccs1
AC50 (INS1): 2.51 µM (active)

CC#CC[N+](C)(C)CCCCCCCC
AC50 (INS1): 28.7 µM (active)

O=[N+]([O-])c1cc(-c2nnc(Nc3ccccc3)c3ccccc23)ccc1N1CCOCC1
EC50 [1]: > 30 µM (not active) | EC50 [2]: 1.28 µM (active)

Cc1ccc(/C=C/C(=O)NC(=S)Nc2ccccc2C(=O)NC2CCCCC2)cc1
AC50 (Cytochrome P450 2C9): 7.08 µM (inconclusive)

CSCCC(NS(=O)(=O)c1cccs1)C(=O)NCc1ccccc1 (stereo not given)
EC50 [3]: > 195 µM (not active)

COc1ccc(NCc2ccsc2)cc1
IC50 [4]: 29.6 µM (active)

COc1ccc(CNC(C)CCc2ccccc2)cc1 (stereo not given)
EC50 [3]: > 195 µM (not active)

Cc1ccc(C)c(NS(=O)(=O)c2cc(C(=O)N3CCc4ccccc4C3)ccc2Cl)c1
EC50 [1]: > 60 µM (not active) | EC50 [2]: 2.06 µM (active)

c1csc(CNc2nc(-c3ccc4c(c3)OCO4)nc3ccccc23)c1
AC50 (Cytochrome P450 2C9): 1.58 µM (inconclusive)

N#CCCn1c(=O)c(-c2ccccc2)nc2cnc(Oc3cccc(Cl)c3)nc21
AC50 (Cytochrome P450 2C9): 7.94 µM (inconclusive)

CCOc1ccc(CNC(=O)CCS(=O)(=O)c2ccc3c(c2)oc(=O)n3C)cc1
EC50 [3]: > 195 µM (not active)

Cc1ccc(CNc2ccc(N3CCOCC3)cc2)s1
IC50 [4]: 20.1 µM (active)

Cc1ccc(CN2CCN(Cc3cc4ccccc4o3)CC2CCO)cc1 (stereo not given)
EC50 [3]: > 195 µM (not active)

CCN(CC)CCNCC(=O)Nc1ccc(Oc2ccccc2)cc1
IC50 [4]: 119 µM (active)

COc1ccc(C(=O)CSc2nc(C)cc(O)n2)cc1C
EC50 [3]: > 195 µM (not active)

c1ccc(COc2ccc(OCCN3CCCC3)cc2)cc1
EC50 [1]: 13.1 µM (active) | EC50 [2]: 1.18 µM (active)

COc1cc(CNc2ccc(N3CCOCC3)cc2)cc(Br)c1OC
IC50 [4]: 15.4 µM (active)

Cc1nc2ccc(NC(=O)N3CCSCC3)cc2s1
EC50 [3]: > 195 µM (not active)

NCCSCc1ccccc1Cl
AC50 (Cytochrome P450 2C9): 3.98 µM (inconclusive)

CCN(CC)c1ccc(NC(=O)CSC(=O)c2ccccc2)cc1
IC50 [4]: 83.9 µM (active)

Cc1cc(/C=C2\C(=N)N3N=C(C(C)C)SC3=NC2=O)c(C)n1Cc1ccccc1
CC50 [5]: 21.5 µM (active)

Cc1cccc(N(C(=O)c2ccco2)C(C(=O)NC2CCCC2)c2cccnc2)c1C (stereo not given)
EC50 [3]: > 195 µM (not active)

Cc1nn2c(SCC(=O)c3cccs3)cc(C(C)(C)C)nc2c1-c1ccccc1
EC50 [1]: > 60 µM (not active) | EC50 [2]: 2.66 µM (active)

Cc1cc2cc(CCNC(=O)C(=O)c3c[nH]c4ccccc34)c(O)nc2cc1C
EC50 [3]: 21.1 µM (active)

Cc1ccccc1C1c2[nH]c3ccccc3c2CCN1Cc1cccn1-c1ncccn1 (stereo not given)
EC50 [1]: > 60 µM (not active) | EC50 [2]: 1.26 µM (active)

COc1ccc(Oc2ncc3nc(-c4ccc(Cl)cc4)c(=O)n(CCC#N)c3n2)cc1
AC50 (Cytochrome P450 2C9): 7.94 µM (inconclusive)

CC(C)CC(C(=O)Nc1cccc(O)c1)N1C(=O)c2ccccc2C1=O (stereo not given)
EC50 [3]: > 195 µM (not active)

C=CCN(CC=C)C(=S)NC(=O)c1ccc(OC)c(Br)c1
AC50 (Cytochrome P450 2C9): 15.8 µM (inconclusive)

O=S(=O)(N1CCCCC1)N1CCN(CC(O)COc2ccc3cc(Br)ccc3c2)CC1 (stereo not given)
EC50 [1]: > 60 µM (not active) | EC50 [2]: 2.31 µM (active)

O=C(NNC(=O)c1ccc2c(c1)C(=O)N(C1CCCCC1)C2=O)c1cccnc1
AC50 (Cytochrome P450 2C9): 15.8 µM (inconclusive)

Cc1nc2c(ccc3nc(NC(=O)C(c4ccccc4)c4ccccc4)sc32)s1
CC50 [5]: 5.99 µM (active)

CCOc1ccc(-c2cn(S(=O)(=O)c3cccc4nsnc34)nc2N)cc1
CC50 [5]: > 50 µM (active)

COC(=O)c1ccc(N=NNc2ccc(C(=O)OC)cc2)cc1
EC50 [3]: > 195 µM (not active)

COc1ccc(CN2CCN(C(C)C(=O)N(C)Cc3cccc(F)c3)CC2)cc1OC (stereo not given)
IC50 [4]: 76.2 µM (active)

COc1ccc(NC(=O)C(C)N2CCN(C)CC2)cc1 (stereo not given)
IC50 [4]: 78.1 µM (active)

O=C(O)CSc1cc(-c2ccccc2)nc2ccccc12
AC50 (Cytochrome P450 2C9): 3.16 µM (inconclusive)

O=C(CN1CCCCCC1)NCC1CCCO1 (stereo not given)
IC50 [4]: 117 µM (active)

COc1ccc(OCCOCCN2CCc3ccccc3C2)cc1
EC50 [1]: > 60 µM (not active) | EC50 [2]: 0.141 µM (active)

O=C(COc1ccccc1)Nc1ccc(N2CCN(C(=O)c3ccco3)CC2)cc1
CC50 [5]: 23.6 µM (active)

COC(=O)c1cc(COc2ccc3oc(C)c(C(=O)OC(C)C)c3c2)c(C)o1
EC50 [3]: > 195 µM (not active)

N#C/C(=C\c1c(Cl)cccc1Cl)c1nn(-c2ccccc2)c(-n2cccc2)c1C#N
EC50 [1]: > 60 µM (not active) | EC50 [2]: 1.29 µM (active)

O=S(=O)(N1CCCCC1)n1nnc2ccccc21
EC50 [3]: > 195 µM (not active)

CCOC(=O)c1cn2nc(-c3ccc(OC)cc3)cc2nc1C1CCN(C(=O)OC(C)(C)C)CC1
EC50 [1]: > 60 µM (not active) | EC50 [2]: 1.55 µM (active)

Cc1cnc(C(=O)Nc2cccc3cccnc23)cn1
EC50 [2]: 2.22 µM (active)

CCn1cc(C(=O)NCCCN2CC(C)CC(C)C2)c(=O)c2cc(S(=O)(=O)N(C)C)ccc21 (stereo not given)
EC50 [3]: > 195 µM (not active)

c1ccc(Cn2nnnc2C(c2cccnc2)N2CCN(c3ccccc3)CC2)cc1 (stereo not given)
EC50 [1]: > 60 µM (not active) | EC50 [2]: 0.534 µM (active)

CC1CC(C)CN(C2CCN(Cc3cccnc3)CC2)C1 (stereo not given)
IC50 [4]: 49.6 µM (active)

CC(=O)OC1(c2ccccc2)CCN(C)C2CCCCC21 (stereo not given)
EC50 [3]: > 195 µM (not active)

CCC(=O)c1ccccc1OCCN1CCN(CC)CC1
IC50 [4]: 88.2 µM (active)

COCCSc1ccccc1C(=O)N1CCCC(C)C1 (stereo not given)
EC50 (Streptococcus): > 150 µM (not active) | EC50 [6]: > 150 µM (not active)

CCOC(=O)c1[nH]c2cc(OC)c(OC)cc2c1N
IC50 [4]: 35 µM (active)

CC(C)CCNc1nc(N2CCCC2)c2c(c1C#N)CCN(C)C2
EC50 [1]: > 60 µM (not active) | EC50 [2]: 0.1 µM (active)

COc1ccc(C2=NN(C(=O)c3cccs3)C(c3ccccc3O)C2)cc1 (stereo not given)
EC50 [1]: > 60 µM (not active) | EC50 [2]: 3.01 µM (active)

Cc1cc(C)c(OCCCCN(C)C)c(Br)c1
EC50 [1]: > 60 µM (inconclusive) | EC50 [2]: 0.46 µM (active)

O=[N+]([O-])c1ccc2c(c1)Cc1cc(O)ccc1-2
IC50 [4]: 16.7 µM (active)

O=C(CSc1nnc(C2CC2)n1C1CC1)N1CCN(c2ccc(O)cc2)CC1
IC50 [4]: 30.2 µM (active)

CCOc1ccccc1/N=N/c1c(C)[nH]n(C(N)=S)c1=O
CC50 [5]: 33.1 µM (active)

CCN(CC)S(=O)(=O)c1cccc(C(=O)N/N=C/c2ccc(OC)c(O)c2)c1
IC50 [4]: 76.7 µM (active)

C/C(=N\OCC(=O)Nn1c(=O)[nH]c2ccccc2c1=O)c1cccs1
EC50 [3]: > 195 µM (not active)

CCn1nc(C)c(/C=N/NC(=O)c2c[nH]c3ccccc23)c1C
EC50 [3]: > 195 µM (not active)

O=C1OC2(CCCCC2)OC(O)=C1/C=N/c1nccs1
EC50 [3]: > 195 µM (not active)
